Data reported in publication PMC2233901 (The Journal of General Physiology, 2004).
Where a chain is given by its changes, count along the chain named.

What was measured:
Assay type in all cases: cell-based
[1] = molecular target: T1, mBest2 (mouse bestrophin-2) (Mus musculus, UniProt Q8BGM5, F80R); assay: whole-cell patch clamp, inhibition of Cl current in HEK293
T1 sequence (Q8BGM5 1-508 F80R): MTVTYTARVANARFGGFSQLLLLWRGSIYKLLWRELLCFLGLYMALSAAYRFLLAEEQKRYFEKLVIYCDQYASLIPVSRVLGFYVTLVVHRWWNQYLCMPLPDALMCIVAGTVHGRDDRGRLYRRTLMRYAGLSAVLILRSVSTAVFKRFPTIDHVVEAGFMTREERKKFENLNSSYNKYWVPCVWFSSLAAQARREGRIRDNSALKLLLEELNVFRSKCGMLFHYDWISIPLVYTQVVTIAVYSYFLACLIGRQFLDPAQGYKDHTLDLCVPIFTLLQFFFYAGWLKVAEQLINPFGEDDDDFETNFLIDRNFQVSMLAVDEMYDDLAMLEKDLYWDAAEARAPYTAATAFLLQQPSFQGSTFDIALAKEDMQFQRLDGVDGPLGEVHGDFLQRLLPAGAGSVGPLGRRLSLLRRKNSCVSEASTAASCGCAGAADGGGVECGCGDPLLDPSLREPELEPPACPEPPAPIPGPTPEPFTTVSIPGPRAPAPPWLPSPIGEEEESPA

[2] = molecular target: T2, mBest2 (mouse bestrophin-2) (Mus musculus, UniProt Q8BGM5, S79T); assay: whole-cell patch clamp, block of Cl current in HEK293
T2 sequence (Q8BGM5 1-508 S79T): T1 sequence (Q8BGM5 1-508 F80R) with S79T, R80F

[3] = molecular target: T3, mBest2 (mouse bestrophin-2) (Mus musculus, UniProt Q8BGM5); assay: as above
T3 sequence (Q8BGM5 1-508): T1 sequence (Q8BGM5 1-508 F80R) with R80F

Row | Ki [1] [mM] | IC50 [2] [mM] | IC50 [3] [mM] | Structure (SMILES)
1 | 0.016 | – | – | O=S(=O)(O)c1cc(N=C=S)ccc1/C=C/c1ccc(N=C=S)cc1S(=O)(=O)O [DIDS]
2 | – | 18.5 ± 2.7 | 9.8 ± 1.1 | N#CS [SCN]
